Measured values as given in ChEMBL document CHEMBL5647693, “Molecular basis underlying resistance to Mps1/TTK inhibitors” (Oncogene, 2016).
pIC50: −log10 of the molar value.

How the values were obtained:
Assay in all cases: cells
Format in all cases: functional, cell-based
[1] = system: HCT-116; conditions: Homo sapiens, HCT-116, 120 h
[2] = system: HCT-116; conditions: Homo sapiens, HCT-116, 120 h; remark: listed apart in the source
[3] = system: DLD-1; conditions: Homo sapiens, DLD-1, 120 h
[4] = system: HeLa; conditions: Homo sapiens, 120 h
[5] = system: HCT-116; conditions: Homo sapiens, HCT-116, 120 h; remark: listed apart in the source
[6] = system: DLD-1; conditions: Homo sapiens, DLD-1, 120 h; remark: listed apart in the source
[7] = system: HeLa; conditions: Homo sapiens, 120 h; remark: listed apart in the source
[8] = system: HeLa; conditions: Homo sapiens, 120 h; remark: listed apart in the source
[9] = system: HeLa; conditions: Homo sapiens, 120 h; remark: listed apart in the source
[10] = system: U2OS; conditions: Homo sapiens, 120 h
[11] = system: DLD-1; conditions: Homo sapiens, DLD-1, 120 h; remark: listed apart in the source
[12] = system: HCT-116; conditions: Homo sapiens, HCT-116, 120 h; remark: listed apart in the source

| pIC50 [1] | pIC50 [2] | pIC50 [3] | pIC50 [4] | pIC50 [5] | pIC50 [6] | pIC50 [7] | pIC50 [8] | pIC50 [9] | pIC50 [10] | pIC50 [11] | pIC50 [12] | SMILES |
| --- | --- | --- | --- | --- | --- | --- | --- | --- | --- | --- | --- | --- |
| 5.49 | 5.27 | 5.10 | 5.32 | 5.79 | 5.62 | 5.17 | 5.05 | 5.47 | – | – | – | COc1cc(N2CCC(O)CC2)ccc1Nc1nc(Nc2ccccc2S(=O)(=O)C(C)C)c2nc[nH]c2n1 |
| 5.51 | < 5.30 | < 5.30 | 5.41 | 6.25 | 6.14 | 5.56 | < 5.30 | 5.87 | – | – | – | COc1cc(OC2CCN(C)CC2)ccc1Nc1ncc2c(n1)n(C1CCCC1)c(=O)n2C |
| 5.97 | < 5.70 | < 5.70 | 6.33 | 6.80 | 6.74 | < 5.70 | < 5.70 | 6.55 | 6.98 | 7.12 | 7.20 | Cc1cc(N2CCOCC2)ccc1Nc1nc(NC2CCCCC2)c2nc[nH]c2n1 |
